From patent publication US20250090473A1, “Macrophage Targeted Immunotherapeutics” (The General Hospital Corporation, priority 2017, published 2025)
Where two headings read alike, the source gives them in different places.

Columns and labels:
[1] = tested on: murine M2-like macrophages; assay: High-content morphological screening of macrophage re-education (M1 enrichment); assay type: cell-based; details: for M1 enrichment in response to drug treatment: variable concentrations, FIG. 5A
Protocol: Cells were maintained in the indicated medium at 37° C. and 5% CO2 and screened regularly for mycoplasma. RAW 264.7 cells were sourced from ATCC and maintained in Dulbecco's Modified Eagles Medium supplemented with 10% heat inactivated fetal calf serum (Atlanta Biologicals), 100 IU penicillin (Invitrogen), and 100 μg mL^−1 streptomycin (Invitrogen), and […] L-glutamine. The MC38 mouse colon adenocarcinoma cell lines were provided by Mark Smyth (QIMR Berghofer Medical Research Institute) with stable transfection of the H2B-Apple reporter to yield a MC38-H2B-mApple cell line employed in intravital microscopy studies. Murine bone marrow-derived macrophages (BMDMs) were isolated and derived by adaptation of published procedures known to those of skill in the art. Briefly, bone marrow was extracted from the surgically resected femur and tibia of naive C57BL/6 mice, dissociated and passed through a 40 μm strainer, and red blood cells lysed by ammonium chloride (StemCell Tech). Resultant bone marrow cells were plated in either 24-well (Corning 3527, for PCR analysis) or optical-bottom 384-well plates (Thermo Fisher 142761, for image analysis) at 1×10^6 cells mL^−1 in Iscove's Modified Dulbecco's Medium supplemented with 10% heat inactivated fetal calf serum, 100 IU penicillin, 100 μg ml^−1 streptomycin (Invitrogen) and 10 ng mL^−1 recombinant murine M-CSF (PeproTech, 315-02); media was replenished every two days. Human macrophages were derived from peripheral blood mononuclear cells isolated using Ficoll-Paque PLUS (GE Healthcare) gradient separation and derived in the presence of 50 ng mL^−1 recombinant human M-CSF (PeproTech, 300-25). Cell proliferation was assessed by PrestoBlue (Fisher) following manufacturer's protocols.
For morphological analysis, media was replenished with M-CSF-free media on day 7 followed by drug dosing (Table 1).
After 48 hours, cells were fixed with formaldehyde (30 min, 37° C.) and stained for actin (5.0 μg mL^−1 DyLight 554 Phalloidin, Cell Signaling Technology), cell membrane (5.0 μg mL^−1 Alexa Fluor 647 wheat germ agglutinin, Thermo Fisher) and nuclei (DAPI, Invitrogen) for 25 min at room temperature. Plates were washed by PBS prior to imaging on a custom Olympus-based automated high-content screening microscope. Four images were acquired per well in a 2×2 grid, imported into CellProfiler (Broad Institute) for pre-processing and segmentation (Table 2).
Computational cell classification was performed in CellProfiler Analyst (Broad Institute) by random forest assignment. Training data (examples provided, Supplementary Figure S1) consisted of approximately 50 healthy cells each representing undifferentiated (M0), M1-like, or M2-like phenotypes. The fast gentle algorithm was trained on the selected cells for […] determination of weights and thresholds for cell shape features. The resulting set of parameters was used to score all other images. The enrichment score for M1 cells was output back into the database and imported into KNIME to generate per-well and per-treatment averages.
Cell morphology was used as an integrated biomarker of cell function, including as an indicator for age and immunosuppressive capacity. The method that was used uses high-content image analysis via computational automated segmentation to extract features of single cells such as cellular radius, axis lengths, compactness, and eccentricity which are associated with the polarization state. […]

[2] = tested on: M2-like (IL-4 treated) murine macrophages; assay: qPCR transcriptional analysis of M2-like (IL-4 treated) murine macrophages; assay type: cell-based; details: Mus musculus, Macrophage, M2-like macrophages cultured with R848, 24 hours, given as logIC50
Protocol: For transcriptional analysis, derived murine macrophages were treated with 10 ng mL^−1 recombinant mouse IL-4 (PeproTech 214-14) for 24 hours to induce an M2-like polarization state and subsequently dosed with fresh media supplemented by pharmacologic drugs at the prescribed concentrations. Macrophages treated only with IL-4 (10 ng mL^-1) or LPS (100 ng mL^-1) and IFNg (50 ng mL^-1) served as internal controls for M2-like and M1-like transcription profiles, respectively. […] Data are presented as the gene expression (fold change relative to hprt or β-actin, as indicated) or M1-likeness, calculated as described in Example 2, FIG. 20B. […]
A subset of drugs having a range of M1 enrichment activities were further scrutinized by qPCR analysis of representative M1-like (nos2, il12, and cd80) and M2-like (mrc1, arg1) transcripts. FIG. 20A is a set of two bar graphs depicting gene expression of M1-like and M2-like macrophages, expressed as fold change relative to hprt. […] M1-likeness is determined by summing the changes in expression for each gene resulting from treatment, normalized to the range of expression observed in the training data. […]

| Compound | M1 enrichment in response to drug treatment [1] | EC50 ([1]; Mus musculus, Macrophage, dose response, 48 hours) [nM] | IC50 ([1]; Mus musculus, Macrophage, given as logIC50) [nM] | IC50 ([2]; read-out: logIC50 of IL12 transcription (converted)) [nM] | IC50 ([2]; read-out: logIC50 of TLR7 expression (converted)) [nM] |
| --- | --- | --- | --- | --- | --- |
| COc1ccc(COc2ccc(Cc3cnc(N)nc3N)cc2OC)cc1 [GW2580] | exception | – | – | – | – |
| CCOCc1nc2c(N)nc3ccccc3c2n1CC(C)(C)O [R848, resiquimod] | – | 14.1 | 14.5 | 398 | 7.24 |
| CCCN(CCC)C(=O)C1=Cc2ccc(-c3ccc(C(=O)N4CCCC4)cc3)cc2N=C(N)C1 [motolimod] | M1 enrichments which were as pronounced as standard M1 induction by LPS and IFNγ | – | – | – | – |
| CCCCOc1nc(N)c2c(n1)N(Cc1cccc(CN3CCCC3)c1)CC(=O)N2 [GS9620] | M1 enrichments which were as pronounced as standard M1 induction by LPS and IFNγ | – | – | – | – |
